Earlier results, collected in US20050043369A1, “Bactericidal antimicrobial methods and compositions for use in treating gram positive infections” (Protez Pharmaceuticals Inc., priority 2000, published 2005).

Test system: S. aureus (SA1199)
Settings: vancomycin; Jeffrey et al., 1999; cited from earlier work

Structure (SMILES): CN[C@H](CC(C)C)C(=O)N[C@H]1C(=O)N[C@@H](CC(N)=O)C(=O)N[C@H]2C(=O)N[C@H]3C(=O)N[C@H](C(=O)N[C@H](C(=O)O)c4cc(O)cc(O)c4-c4cc3ccc4O)[C@H](O)c3ccc(c(Cl)c3)Oc3cc2cc(c3O[C@@H]2O[C@H](CO)[C@@H](O)[C@H](O)[C@H]2O[C@H]2C[C@](C)(N)[C@H](O)[C@H](C)O2)Oc2ccc(cc2Cl)[C@H]1O [vancomycin]
- time to decrease the viability of S. aureus by 1000-fold: 4 to 8 h
